Data on 16 compounds can be found in PubChem BioAssay AID270 (DTP/NCI, 2004).

Molecules are shown by their SMILES. Values joined by “and” are separate entries in the source; they are usually repeats but may differ in a detail not shown here. Identical values can stand only once. Inconclusive results are not listed.

The test system of this test is BDF1 mice, s.c. Lewis lung carcinoma, T/C %. The experiment in a line: NCI In Vivo Anticancer Drug Screen. Data for tumor model Lewis Lung Carcinoma (subcutaneous) in B6D2F1 (BDF1) mice. An outline of the steps:
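First, mice carry a transplantable tumor. Next, groups receive either compound or vehicle. Finally, survival or tumor dimensions in the dosed animals are divided by the corresponding control figure.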

As to `COc1ccc2c3c(c4cc(OC)c(OC)cc4c2c1)C[C@H]1CCCCN1C3`, the T/C is 90 % of control and 100 % of control (endpoint: mean tumor weight, dose: 0.25 mg/kg/injection, schedule: Q01DX011 (ip), vehicle: other, higher = larger tumour); 190 % of control (endpoint: mean tumor weight, dose: 0.5 mg/kg/injection, schedule: Q01DX011 (ip), vehicle: other, higher = larger tumour); 87 % of control (endpoint: mean tumor weight, dose: 0.75 mg/kg/injection, schedule: Q01DX011 (ip), vehicle: other, higher = larger tumour).

`CNNCc1ccc(C(=O)NC(C)C)cc1`: the T/C (endpoint: median survival time, dose: 25.0 mg/kg/injection, schedule: Q08HX024 (ip), vehicle: saline, higher = longer survival) was 100 % of control and the T/C (endpoint: median survival time, dose: 50.0 mg/kg/injection, schedule: Q08HX024 (ip), vehicle: saline, higher = longer survival) is 112 % of control.

`CC1=CC2=C(C=O)C(=O)[C@](C)(O)[C@@H](O)C2=CO1`: the T/C was 115 % of control (endpoint: median survival time, dose: 1.56 mg/kg/injection, schedule: Q01DX009 (ip), vehicle: saline with Tween-80, higher = longer survival); 153 % of control (endpoint: median survival time, dose: 3.13 mg/kg/injection, schedule: Q01DX009 (ip), vehicle: saline with Tween-80, higher = longer survival); 89 % of control and 120 % of control (endpoint: median survival time, dose: 6.25 mg/kg/injection, schedule: Q01DX009 (ip), vehicle: saline with Tween-80, higher = longer survival); 109 % of control (endpoint: median survival time, dose: 12.5 mg/kg/injection, schedule: Q01DX009 (ip), vehicle: saline with Tween-80, higher = longer survival); 106 % of control (endpoint: median survival time, dose: 25.0 mg/kg/injection, schedule: Q01DX009 (ip), vehicle: saline with Tween-80, higher = longer survival).

As to `CCOC(=O)C(Br)CC` (centres undefined), for the setting “endpoint: mean tumor weight, dose: 148.0 mg/kg/injection, schedule: Q01DX011 (ip), vehicle: other, higher = larger tumour”, the T/C was 77 % of control.

In the case of `FC(F)(F)c1nc2nc(Cl)c(Cl)nc2[nH]1`, the T/C runs as follows: (endpoint: median survival time, dose: 11.25 mg/kg/injection, schedule: Q01DX009 (ip), vehicle: Klucel (hydroxypropylcellulose) (HPC), higher = longer survival) 105 % of control; (endpoint: median survival time, dose: 22.5 mg/kg/injection, schedule: Q01DX009 (ip), vehicle: Klucel (hydroxypropylcellulose) (HPC), higher = longer survival) 101 % of control; (endpoint: median survival time, dose: 45.0 mg/kg/injection, schedule: Q01DX009 (ip), vehicle: Klucel (hydroxypropylcellulose) (HPC), higher = longer survival) 96 % of control; (endpoint: median survival time, dose: 90.0 mg/kg/injection, schedule: Q01DX009 (ip), vehicle: Klucel (hydroxypropylcellulose) (HPC), higher = longer survival) 98 % of control.

Take `Cc1ccc(Oc2ccc3cc[n+](C)cc3c2)cc1`: the T/C is 96 % of control (endpoint: median survival time, dose: 6.25 mg/kg/injection, schedule: Q01DX009 (ip), vehicle: saline, higher = longer survival) and 101 % of control (endpoint: median survival time, dose: 12.5 mg/kg/injection, schedule: Q01DX009 (ip), vehicle: saline, higher = longer survival).

Consider `O=[N+]([O-])c1ccc(CSc2ncnc3c2ncn3C2OC(CO)C(O)C2O)cc1` (centres undefined), for which the T/C runs as follows: (endpoint: median survival time, dose: 0.3 mg/kg/injection, schedule: Q01DX010 (ip), vehicle: saline with Tween-80, higher = longer survival) 93 % of control; (endpoint: median survival time, dose: 3.0 mg/kg/injection, schedule: Q01DX010 (ip), vehicle: saline with Tween-80, higher = longer survival) 97 % of control; (endpoint: median survival time, dose: 30.0 mg/kg/injection, schedule: Q01DX010 (ip), vehicle: saline with Tween-80, higher = longer survival) 106 % of control.

Regarding `Nc1ncnc2c1ccn2C1OC(CO)C(O)C1O` (centres undefined), the T/C is, setting by setting: (endpoint: mean tumor weight, dose: 0.32 mg/kg/injection, schedule: Q01DX011 (ip), vehicle: saline, higher = larger tumour) 77 % of control; (endpoint: mean tumor weight, dose: 0.63 mg/kg/injection, schedule: Q01DX011 (ip), vehicle: saline, higher = larger tumour) 60 % of control; (endpoint: mean tumor weight, dose: 1.25 mg/kg/injection, schedule: Q01DX011 (ip), vehicle: saline, higher = larger tumour) 84 % of control; (endpoint: median survival time, dose: 0.25 mg/kg/injection, schedule: Q01DX011 (ip), vehicle: other, higher = longer survival) 98 % of control; (endpoint: median survival time, dose: 0.5 mg/kg/injection, schedule: Q01DX011 (ip), vehicle: other, higher = longer survival) 89 % of control; (endpoint: median survival time, dose: 1.0 mg/kg/injection, schedule: Q01DX011 (ip), vehicle: other, higher = longer survival) 110 % of control. Where the note is “endpoint: median survival time, dose: 2.0 mg/kg/injection, schedule: Q01DX011 (ip), vehicle: other, higher = longer survival”, the T/C was 101 % of control.

Take `CC[C@H]1CN2CCc3cc(OC)c(OC)cc3[C@@H]2C[C@@H]1C[C@H]1NCCc2c1[nH]c1ccc(O)cc21`: the T/C was 103 % of control (endpoint: median survival time, dose: 0.25 mg/kg/injection, schedule: Q01DX009 (ip), vehicle: Klucel (hydroxypropylcellulose) (HPC), higher = longer survival); 93 % of control (endpoint: median survival time, dose: 0.5 mg/kg/injection, schedule: Q01DX009 (ip), vehicle: Klucel (hydroxypropylcellulose) (HPC), higher = longer survival); 90 % of control (endpoint: median survival time, dose: 1.0 mg/kg/injection, schedule: Q01DX009 (ip), vehicle: Klucel (hydroxypropylcellulose) (HPC), higher = longer survival).

Turning to `CCN(CC)CCCC(C)Nc1c2ccc(Cl)cc2nc2ccc(OC)cc12` (centres undefined), the T/C reads like this: (endpoint: median survival time, dose: 8.0 mg/kg/injection, schedule: Q01DX009 (ip), vehicle: saline, higher = longer survival) 103 % of control; (endpoint: median survival time, dose: 8.0 mg/kg/injection, schedule: Q01DX009 (ip), vehicle: suspension in saline, higher = longer survival) 95 % of control; (endpoint: median survival time, dose: 16.0 mg/kg/injection, schedule: Q01DX009 (ip), vehicle: saline, higher = longer survival) 101 % of control; (endpoint: median survival time, dose: 16.0 mg/kg/injection, schedule: Q01DX009 (ip), vehicle: suspension in saline, higher = longer survival) 113 % of control; (endpoint: median survival time, dose: 32.0 mg/kg/injection, schedule: Q01DX009 (ip), vehicle: saline with Tween-80, higher = longer survival) 163 % of control; (endpoint: median survival time, dose: 32.0 mg/kg/injection, schedule: Q01DX009 (ip), vehicle: suspension in saline, higher = longer survival) 104 % of control. Besides, the T/C (endpoint: median survival time, dose: 64.0 mg/kg/injection, schedule: Q01DX009 (ip), vehicle: saline with Tween-80, higher = longer survival) is 112 % of control; the T/C (endpoint: median survival time, dose: 64.0 mg/kg/injection, schedule: Q01DX009 (ip), vehicle: saline, higher = longer survival) is 101 % of control; the T/C (endpoint: median survival time, dose: 64.0 mg/kg/injection, schedule: Q01DX009 (ip), vehicle: suspension in saline, higher = longer survival) was 105 % of control.

Turning to `O=C1CCCC2C3CC(CN12)C1CCCCN1C3` (centres undefined), the T/C is, setting by setting: (endpoint: mean tumor weight, dose: 22.0 mg/kg/injection, schedule: Q01DX011 (ip), vehicle: carboxymethylcellulose (CMC), higher = larger tumour) 113 % of control; (endpoint: mean tumor weight, dose: 33.0 mg/kg/injection, schedule: Q01DX011 (ip), vehicle: carboxymethylcellulose (CMC), higher = larger tumour) 59 % of control; (endpoint: mean tumor weight, dose: 50.0 mg/kg/injection, schedule: Q01DX011 (ip), vehicle: carboxymethylcellulose (CMC), higher = larger tumour) 78 % of control; (endpoint: mean tumor weight, dose: 75.0 mg/kg/injection, schedule: Q01DX011 (ip), vehicle: carboxymethylcellulose (CMC), higher = larger tumour) 89 % of control.

As to `N#CC(Cc1ccccc1)C(=O)O` (centres undefined), the T/C reads like this: (endpoint: mean tumor weight, dose: 55.0 mg/kg/injection, schedule: Q01DX011 (ip), vehicle: other, higher = larger tumour) 80 % of control; (endpoint: mean tumor weight, dose: 83.0 mg/kg/injection, schedule: Q01DX011 (ip), vehicle: other, higher = larger tumour) 68 % of control; (endpoint: mean tumor weight, dose: 125.0 mg/kg/injection, schedule: Q01DX011 (ip), vehicle: other, higher = larger tumour) 75 % of control and 82 % of control; (endpoint: mean tumor weight, dose: 187.0 mg/kg/injection, schedule: Q01DX011 (ip), vehicle: other, higher = larger tumour) 46 % of control; (endpoint: mean tumor weight, dose: 250.0 mg/kg/injection, schedule: Q01DX011 (ip), vehicle: other, higher = larger tumour) 63 % of control; (endpoint: mean tumor weight, dose: 500.0 mg/kg/injection, schedule: Q01DX011 (ip), vehicle: other, higher = larger tumour) 19 % of control.

Regarding `NCCc1ccc(O)c(O)c1`, the T/C is 119 % of control (endpoint: median survival time, dose: 37.0 mg/kg/injection, schedule: Q01DX009 (ip), vehicle: saline, higher = longer survival); 109 % of control (endpoint: median survival time, dose: 75.0 mg/kg/injection, schedule: Q01DX009 (ip), vehicle: saline, higher = longer survival); 88 % of control (endpoint: median survival time, dose: 150.0 mg/kg/injection, schedule: Q01DX009 (ip), vehicle: saline, higher = longer survival); 107 % of control (endpoint: median survival time, dose: 600.0 mg/kg/injection, schedule: Q01DX009 (ip), vehicle: saline, higher = longer survival).

`O=C(CCCN1CCC(O)(c2cccc(C(F)(F)F)c2)CC1)c1ccc(F)cc1`: the T/C was 92 % of control (endpoint: median survival time, dose: 25.0 mg/kg/injection, schedule: Q04DX003 (ip), vehicle: saline with Tween-80, higher = longer survival) and 121 % of control (endpoint: median survival time, dose: 50.0 mg/kg/injection, schedule: Q04DX003 (ip), vehicle: saline with Tween-80, higher = longer survival).

On to `CN(C)CCCNc1c2ccccc2nc2cccc([N+](=O)[O-])c12`, for which the T/C runs as follows: (endpoint: median survival time, dose: 2.0 micrograms/kg/injection, schedule: Q01DX009 (ip), vehicle: saline, higher = longer survival) 98 % of control and 118 % of control; (endpoint: median survival time, dose: 8.0 micrograms/kg/injection, schedule: Q01DX009 (ip), vehicle: saline, higher = longer survival) 89 % of control; (endpoint: median survival time, dose: 16.0 micrograms/kg/injection, schedule: Q01DX009 (ip), vehicle: saline, higher = longer survival) 109 % of control; (endpoint: median survival time, dose: 32.0 micrograms/kg/injection, schedule: Q01DX009 (ip), vehicle: saline, higher = longer survival) 95 % of control; (endpoint: median survival time, dose: 125.0 micrograms/kg/injection, schedule: Q01DX009 (ip), vehicle: saline, higher = longer survival) 93 % of control.

Take `CN(C)C(=S)N=Nc1c(O)[nH]c2ccccc12`: the T/C (endpoint: mean tumor weight, dose: 6.6 mg/kg/injection, schedule: Q01DX011 (ip), vehicle: carboxymethylcellulose (CMC), higher = larger tumour) was 74 % of control; the T/C (endpoint: mean tumor weight, dose: 10.0 mg/kg/injection, schedule: Q01DX011 (ip), vehicle: carboxymethylcellulose (CMC), higher = larger tumour) is 89 % of control; the T/C (endpoint: mean tumor weight, dose: 15.0 mg/kg/injection, schedule: Q01DX011 (ip), vehicle: carboxymethylcellulose (CMC), higher = larger tumour) was 47 % of control and 65 % of control; the T/C (endpoint: mean tumor weight, dose: 30.0 mg/kg/injection, schedule: Q01DX011 (ip), vehicle: carboxymethylcellulose (CMC), higher = larger tumour) was 50 % of control.
